Consider 9 molecules from US20230096781A1, “METHODS OF CONTROLLING BODYWEIGHT BY MODULATING PHOSPHATIDYLINOSITOL 5-PHOSPHATE 4-KINASE BETA ACTIVITY” (University of Cincinnati, priority 2020, published 2023).

In assay [1] the target is T1, PI5P4Kβ (Homo sapiens, UniProt P78356).
T1 sequence (P78356 1-416): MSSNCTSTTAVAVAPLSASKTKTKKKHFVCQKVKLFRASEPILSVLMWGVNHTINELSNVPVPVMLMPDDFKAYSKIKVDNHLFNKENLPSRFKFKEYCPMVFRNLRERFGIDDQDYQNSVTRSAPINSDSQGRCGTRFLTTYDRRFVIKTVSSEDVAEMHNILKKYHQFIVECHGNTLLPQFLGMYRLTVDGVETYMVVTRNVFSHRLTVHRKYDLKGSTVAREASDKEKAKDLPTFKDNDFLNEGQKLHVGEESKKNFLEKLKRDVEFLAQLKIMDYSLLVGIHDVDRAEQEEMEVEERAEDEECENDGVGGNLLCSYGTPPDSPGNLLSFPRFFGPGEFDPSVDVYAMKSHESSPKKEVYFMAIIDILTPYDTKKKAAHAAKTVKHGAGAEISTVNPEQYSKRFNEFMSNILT
As to the kind of experiment: NMR-based PNT hydrolysis assay. In kind it is biochemical. To be noted: WT PI5P4Kβ. The method, then: (A) The PNT hydrolysis activity of PI5P4Kβ. indicative of the kinase activity of PI5P4Kβ. was assessed by the signal intensity ratios of diphosphorylated/triphosphorylated nucleotides after the reaction. The average values from three experiments are shown with error bars (SD). Highly hydrolyzed nucleotides (>0.1 of the ratios) were shown for GTP, ITP, XTP, 6-thio-GTP, and 2a-ATP. (B), (C), and (D) show interactions of the PI5P4Kβ-ITP, PI5P4Kβ-XTP, and PI5P4Kβ-2a-ATP complexes, respectively. Dotted lines represent hydrogen bonds between the PNTs and PI5P4Kβ.
(§1) Next, the mechanism of the GTP preference of PI5P4Kβ was investigated using a series of ATP and GTP analogs. Based on analysis of the GTP-PI5P4Kβ interaction (FIG. 10(B)), 10 PNTs with different configurations at the 2nd and 6th positions of the purine base (NH2(2) and O(6) in guanine base, respectively) were chosen (FIG. 10(A)). The hydrolysis activities of PI5P4Kβ for these PNTs were quantified by an NMR-based assay (data not shown). […] On the other hand, O(6) seems to be required for the activity. […] This view is also supported by the larger energetic contribution of the O(6) moiety compared to the NH2(2) moiety in the FMO interaction analysis between GTP and PI5P4Kβ (FIG. 15).

The target of assay [2] is T2, PI5P4KβT201M (Homo sapiens, UniProt P78356, T201M).
T2 sequence (P78356 1-416 T201M): T1 sequence (P78356 1-416) with T201M
As to the kind of experiment: PNT hydrolysis activity of mutant PI5P4Kβ. The format is biochemical.

Assay [3] concerns the target T3, PI5P4KβF205L (Homo sapiens, UniProt P78356, F205L).
T3 sequence (P78356 1-416 F205L): T1 sequence (P78356 1-416) with F205L
The assay is described as follows: PNT hydrolysis activity of mutant PI5P4Kβ. In kind it is biochemical. As for the experimental part: (§2) (A)-(C) show PNT hydrolysis activity of mutant PI5P4Kβ as compared to the WT. The ratios of dephosphorylated/triphosphorylated nucleotides after reaction are shown. The N203A activity is almost negligible.
(§3) In addition, the hydrolysis activity of the mutants on four active triphosphorylated nucleotides were analyzed, XTP, ITP, 6-thio-GTP, and 2a-ATP. […] In the crystal structure of the PI5P4KβN203D-ITP complex, ITP binds in a similar manner as the WT.

In another assay the target is T4, PI5P4KβN203D (Homo sapiens, UniProt P78356, N203D).
T4 sequence (P78356 1-416 N203D): T1 sequence (P78356 1-416) with N203D
As to the kind of experiment: PNT hydrolysis activity of mutant PI5P4Kβ. In kind it is biochemical. As for the experimental part: as §2, §3

Assay [4] deals with T1, PI5P4Kβ. As to the kind of experiment: Competition assay of 32P-GTP-dependent PI(5)P phosphorylation by cold PNTs. In kind it is biochemical. The following applies: 250 μM 32P-GTP, 3.2-400 μM cold PNT. The method, then: (A) The kinase reaction was carried out in a total of 50 μl of reaction buffer (50 mM HEPES (pH 7.4), 0.2 mM EGTA, and 10 mM MgCl2) containing 20 μM of PI(5)P (d-myo-phosphatidylinositol 5-phosphate diC16) that was suspended by sonication. 250 μM of γ-^32P radiolabeled GTP was incubated with 1 μg of recombinant PI5P4Kβ for 10 min at room temperature. 20 μM of PI(5)P was used with 3 μM 1,2-dipalmitoyl-phosphatidylserine as the basal lipid. Phosphoinositides were extracted by a methanol/chloroform (1/1, v/v) mix and subjected to a thin-layer chromatography (TLC) assay using heat-activated 2% […] silica gel 60 plates. The solvent was 1-propanol/2 M acetic acid (65/35, v/v). In competition assay, 250 μM of ^32P-labeled GTP was mixed with 3.2-400 μM triphosphorylated nucleotides, and the PI(5)P phosphorylation by GTP was monitored by quantifying the amount of radiolabeled PI(4,5)P2. (B) Relative kinase activities in the presence of each PNT against those without them (i.e., only ^32P-GTP condition) are shown.
as §1

Assay [5] concerns PI5P4Kβ with mutation of Asn-203. The assay is described as follows: Nucleotide binding of Asn-203 mutant PI5P4Kβ. As for the experimental part: The functional role of Asn-203 was analyzed, because this is the only invariant residue in the base-recognition loop of PI4P5K and PI5P4K.
Assay [6] addresses T2, PI5P4KβT201M. To be noted: T201M mutant; partly reported in Sumita et al., 2016; cited from earlier work.
Assay [7] addresses T3, PI5P4KβF205L. To be noted: F205L mutant; partly reported in Sumita et al., 2016; cited from earlier work.
In assay [8] the target is T1, PI5P4Kβ. To be noted: KM for GTP; cited from earlier work.
For assay [9], the system named is WT PI5P4Kβ-reconstituted Pip4k2b^−/− cells. The assay is described as follows: Nigericin-induced vacuolization. To be noted: within 4h after nigericin treatment. In kind it is cell-based, mouse. The method, then:
(§4) Next, treatment with microbial toxin nigericin, a selective K^+/H^+ exchanger that is activated in the lysosome and induces lysosome rupture and following cell death, was assessed. […] The autophagic flux in MEF, 293T, and HCT116 cells was decreased by Link17 treated cells (FIG. 7(A),(B)). In the isogenic MEFs, autophagy was decreased in Pip4k2b^−/− and F205L cells, compared to WT cells (FIG. 7(C)).

Another assay deals with Pip4k2b^−/− cells. The assay is described as follows: Nigericin-induced vacuolization. The format is cell-based, mouse. The following applies: within 4h after nigericin treatment. The method, then: (D) is a graph showing cytotoxic death by nigericin was suppressed in Pip4K2b^−/− cells and F205L-PI5P4Kβ-expressing Pip4K2b−/− cells.
as §4

In assay [10] the test system is WT PI5P4Kβ-reconstituted Pip4k2b^−/− cells. The assay is described as follows: Cell viability after nigericin treatment. The format is cell-based, mouse. The method, then: as §4

Residue numbers refer to the chain shown, from its start. Where “and” joins values, the source holds several entries; their conditions need not be identical. Equal values may be shown once.

Turning to `Nc1nc(Cl)c2ncn(C3OC(COP(=O)(O)OP(=O)(O)OP(=O)(O)O)C(O)C3O)c2n1` (stereo not shown) [2a-6C1-PTP], the “hydrolysis activity of PI5P4Kβ (in words)” value on PI5P4Kβ [1] is given as “very low hydrolysis activity”.
As for `Nc1nc(N)c2ncn([C@@H]3O[C@H](COP(=O)(O)OP(=O)(O)OP(=O)(O)O)[C@@H](O)[C@H]3O)c2n1` [2a-ATP], the “hydrolysis activity of PI5P4Kβ (in words)” value on PI5P4Kβ [1] is given as “substantial activity”. The “hydrolysis activity compared to WT” value was “more active” on PI5P4KβT201M [2], “not affected” on PI5P4KβF205L [3] and “significantly reduced” on PI5P4KβN203D.
Turning to `Nc1nc(=S)c2ncn([C@@H]3O[C@H](COP(=O)(O)OP(=O)(O)OP(=O)(O)O)[C@H](O)C3O)c2[nH]1` (stereo partly shown) [6-thio-GTP], the “hydrolysis activity of PI5P4Kβ (in words)” value at PI5P4Kβ [1] is recorded as “substantial activity”. The “inhibition of GTP-dependent PI(5)P phosphorylation activity” value at PI5P4Kβ [4] is “strongly inhibited”. For the same molecule, the “hydrolysis activity compared to WT” value at PI5P4KβF205L [3] is given as “less active”.
For the molecule `Nc1ncnc2c1ncn2[C@@H]1O[C@H](COP(=O)(O)OP(=O)(O)OP(=O)(O)O)[C@@H](O)[C@H]1O` [ATP], the “hydrolysis activity compared to WT” value is on record as “more active” at PI5P4KβT201M [2], “not affected” on PI5P4KβF205L [3] and “significantly reduced” at PI5P4KβN203D. The binding of nucleotide entry in assay [5] is “markedly reduced the binding”. In addition, the figures for the nucleotide-dependent kinase activity result at PI5P4KβT201M [6] and on PI5P4KβF205L [7] were “higher ATP-dependent activity” and “comparable to that of WT PI5P4Kβ”, respectively.
Turning to `Nc1nc2c(ncn2[C@@H]2O[C@H](COP(=O)(O)OP(=O)(O)OP(=O)(O)O)[C@@H](O)[C@H]2O)c(=O)[nH]1` [GTP, guanosine triphosphate], the “hydrolysis activity compared to WT” value at PI5P4KβF205L [3] was “less active”; at PI5P4KβN203D, “significantly reduced”. Besides, the binding of nucleotide entry in assay [5] is reported as “markedly reduced the binding”. On PI5P4Kβ [8], the Km – broadly, the concentration of substrate that gives half-maximal velocity – was ~100 µM and ~88 µM. Besides, the results for the nucleotide-dependent kinase activity entry on PI5P4KβT201M [6] and on PI5P4KβF205L [7] were “decreased GTP-dependent kinase activity” and “reduction of the GTP-dependent activity”, respectively.
`O=P(O)(O)OP(=O)(O)OP(=O)(O)OC[C@H]1O[C@@H](n2cnc3c(O)ncnc32)[C@H](O)[C@@H]1O` [ITP, inosine triphosphate]: at PI5P4Kβ [1], the “hydrolysis activity compared to GTP” value is given as 1.3 times and the “hydrolysis activity of PI5P4Kβ (in words)” value is “substantial activity”. At PI5P4Kβ [4], the “inhibition of GTP-dependent PI(5)P phosphorylation activity” value is on record as “strongly inhibited”. For the same molecule, the “hydrolysis activity compared to WT” value at PI5P4KβF205L [3] is recorded as “less active”. The “hydrolysis activity compared to WT” value on PI5P4KβN203D was “hyperactive”.
For `COc1nc(N)nc2c1ncn2[C@@H]1O[C@H](COP(=O)(O)OP(=O)(O)OP(=O)(O)O)[C@@H](O)[C@H]1O` [O6-me-GTP], the “hydrolysis activity of PI5P4Kβ (in words)” value at PI5P4Kβ [1] is on record as “very low hydrolysis activity”.
Consider `O=c1[nH]c(=O)c2ncn([C@@H]3O[C@H](COP(=O)(O)OP(=O)(O)OP(=O)(O)O)[C@@H](O)[C@H]3O)c2[nH]1` [XTP, xanthosine triphosphate], for which, at PI5P4Kβ [1], the “hydrolysis activity compared to GTP” value is on record as 1.9 times and the “hydrolysis activity of PI5P4Kβ (in words)” value is given as “substantial activity”. Further, on PI5P4Kβ [4], the “inhibition of GTP-dependent PI(5)P phosphorylation activity” value is listed as “strongly inhibited”. The “hydrolysis activity compared to WT” value on PI5P4KβF205L [3] was “diminished susceptibility”. Also, the “hydrolysis activity compared to WT” value at PI5P4KβN203D is on record as “significantly reduced”.
Take `CO[C@@H]1C[C@@H](C[C@H]2CC[C@H](C)[C@H]([C@@H](C)C(=O)O)O2)O[C@]2(O[C@](C)([C@H]3CC[C@@](C)([C@@H]4O[C@@H]([C@H]5O[C@@](O)(CO)[C@H](C)C[C@@H]5C)C[C@@H]4C)O3)C[C@H]2C)[C@@H]1C` [nigericin]: the “hypervacuolization after nigericin treatment” value in assay [9] is on record as “hypervacuolization was observed”; in the assay with Pip4k2b^−/− cells it was “not”. Moreover, the cell viability entry in assay [10] was “decreased cell viability”.
